One may read the IC50 as the midpoint of a concentration-inhibition curve. The term inhibition denotes the relative decrease from the control value, in per cent. As a reminder, the EC50 is the concentration at which the effect is half-maximal.

Where two headings read alike, the source gives them in different places. Bounds are passed on as bounds.

This note sets out measurements from patent publication US20020022586A1, “Method for treating a patient with neoplasia by treatment with a pyrimidine analog” (priority 1998, published 2002).

Series [1] concerns COX. Briefly: COX inhibition. It counts as biochemical.
The test system of series [2] is HT-29 cells. Briefly: HT-29 tumor cell growth inhibition, SRB assay. Format: cell-based, human. Also noted: Growth Inhibition: key to the marks not given beside the values. The settings on record: for Growth inhibitory activity, % Inhibition at 100 μM / inhibition at 100 µM: 100 μM single dose; for IC50 / inhibition at 100 µM: Homo sapiens; for IC50: SRB assay; for inhibition at 100 µM: HT-29, read-out: Growth inhibitory activity, % Inhibition at 100 μM. For orientation: Sulforhodamine B stains cellular protein and so reports cell mass.

Series [3] deals with PDE peak B (novel cGMP-specific PDE). In words: cGMP hydrolysis by PDE peak B isolated from SW-480 cells. Format: biochemical, human. To be noted: 0.25 μM 3H-cGMP.
Series [4] relates to HT-29 cells. In words: Apoptosis by DNA fragmentation assay in HT-29 cells. Format: cell-based, human.
Series [5] relates to T1, cGMP-PDE.
T1 construct: other: 10 μM; other: 100 μM; other: enzyme from HT-29 cells; other: 20 μM
Briefly: cGMP-PDE inhibition assay, enzyme from HT-29 tumor cells. It counts as biochemical, human. The settings on record: 100 μM.

Series [6] deals with HT-29, Colon. In words: Growth inhibition of various cell lines (Table 5). Format: cell-based. To be noted: Homo sapiens.
Series [7] deals with premalignant lesions in mouse mammary gland organ culture. In words: Mammary gland organ culture model. As to mammary gland organ culture: key: −: Not active; +: Slightly active; ++: Moderately active; +++: Strongly active; ++++: Highly active. It counts as cell-based. To be noted: for Mammary Gland Organ Culture: activity profile; for inhibition of premalignant lesions: mammary gland organ culture. The protocol: For example, female BALB/c mice can be treated with a combination of estradiol and progesterone daily, in order to prime the glands to be responsive to hormones in vitro. The animals are sacrificed and thoracic mammary glands are excised aseptically and incubated for ten days in growth media supplemented with insulin, prolactin, hydrocortisone, and aldosterone. DMBA (7,12-dimethylbenz(a)anthracene) is added to medium to induce the formation of premalignant lesions. Fully developed glands are then deprived of prolactin, hydrocortisone, and aldosterone, resulting in the regression of the glands but not the premalignant lesions.
The test compound is dissolved in DMSO and added to the culture media for the duration of the culture period. At the end of the culture period, the glands are fixed in 10% formalin, stained with alum carmine, and mounted on glass slides. The extent of the area occupied by the mammary lesions can be quantitated by projecting an image of the gland onto a digitation pad. The area covered by the gland is traced on the pad and considered as 100% of the area. The space covered by each of the unregressed structures is also outlined on the digitization pad and quantitated by the computer.
The incidence of forming mammary lesions is the ratio of the glands with mammary lesions to […]. The incidence of mammary lesions in test compound treated glands is compared with that of the untreated glands.
Mammary gland organ culture experiments were performed as previously described (Mehta and Moon, Cancer Research, 46: 5832-5835, 1986). […] The data support the hypothesis that cyclooxygenase inhibition is not necessary for the anti-neoplastic properties of desired compounds.

The target in series [8] is T2, PDE peak A (PDE5) (Homo sapiens, UniProt O76074).
T2 construct: SW-480 cells are collected and homogenized; endogenous in cells; host or cells: SW-480 human colon adenocarcinoma cells; supernatant of homogenate fractionated on DEAE-Trisacryl M
Briefly: cGMP hydrolysis by PDE peak A isolated from SW-480 cells. Format: biochemical. The settings on record: cGMP hydrolysis, 0.25 μM 3H-cGMP.

Series [9] deals with HCT-15. Briefly: Growth inhibition of various cell lines (Table 5). It counts as cell-based. The settings on record: Homo sapiens. The protocol: (§1) To show the effectiveness of cGMP-specific PDE inhibition on various forms of neoplasia, compounds were tested on numerous cell lines. […] The IC50 values were determined by the SRB assay. […] Therefore, compounds selected for cGMP-specific PDE inhibition in combination with a pyrimidine analog should be useful for treating neoplasia, in particular breast, colorectal and pancreatic cancers.

Series [10] relates to MDA-MB-435. Briefly: Growth inhibition of various cell lines (Table 5). It counts as cell-based. The settings on record: Homo sapiens. How it is done:
as §1

The subject of series [11] is DU-145. In words: Growth inhibition of various cell lines (Table 5). It counts as cell-based. To be noted: Homo sapiens. The protocol:
as §1

For series [12], the system named is Human Prostate Carcinoma PC3. Briefly: Growth inhibition of various cell lines (Table 5). It counts as cell-based. How it is done:
as §1

Series [13] relates to A-427, Lung. In words: Growth inhibition of various cell lines (Table 5). Format: cell-based. To be noted: Homo sapiens. How it is done: as §1
Series [14] is described as follows: Side effects of exisulind on administration. Format: in vivo. An excerpt:
This effect is reversible, and liver enzymes return to normal levels when the administered dose of exisulind returns to the traditionally recommended level or when treatment is discontinued. The most serious side effect of pyrimidine analogs, on the other hand, is bone marrow suppression.

For series [15], the system named is HT-29 cells. In words: Apoptosis and necrosis by morphology (acridine orange/ethidium bromide) in HT-29 cells. Format: cell-based, human. The settings on record: HT-29, 6 days, morphology. An excerpt: Following treatment with a test compound, cultures can be assayed for apoptosis and necrosis by fluorescent microscopy following labeling with acridine orange and ethidium bromide. The method for measuring apoptotic cell number has previously been described by Duke & Cohen, “Morphological And Biochemical Assays Of Apoptosis,” Current Protocols In Immunology, Coligan et al., eds., 3.17.1-3.17.16 (1992, which is incorporated herein by reference).
For example, floating and attached cells can be collected, and aliquots of cells can be centrifuged. The cell pellet can then be resuspended in media and a dye mixture containing acridine orange and ethidium bromide. The mixture can then be examined microscopically for morphological features of apoptosis.
Reference compounds and test compounds were analyzed for their cGMP-specific PDE inhibitory activity in accordance with the protocols for the assay, supra. […] Apoptotic and necrotic cell death was determined as previously described (Duke and Cohen, In: Current Protocols in Immunology, 3.17.1-3.17.16, New York, John Wiley and Sons, 1992). […] All data were collected from the same experiment.
The apoptosis inducing activity for a series of phosphodiesterase inhibitors was determined. HT-29 cell were treated for 6 days with various inhibitors of phosphodiesterase. Apoptosis and necrosis were determined morphologically after acridine orange and ethidium bromide labeling in accordance with the assay described, supra.

Series [16] has as its system HT-29 cells. In words: cAMP levels in cultured HT-29 cells by radioimmunoassay. To be noted: HT-29 cells treated 30 minutes. It counts as cell-based, human. An excerpt:
It has been observed that a compound which is useful in the practice of this invention (i.e., one that selectively induces apoptosis in neoplastic cells, but not substantially in normal cells) follows a time course consistent with cGMP-specific PDE inhibition. […] The intracellular targets of these drug actions are being studied further, but current data support the concept that the initial rise in cGMP content and the subsequent fall in cAMP content precede apoptosis in neoplastic cells exposed to test compounds useful in this invention. To determine the cyclic AMP content in cell extracts, radioimmunoassay techniques similar to those described above for cGMP are used.

Setting [17] is: 144 h, HT-29, 6 days, PDE inhibitors, read-out: Growth inhibition (IC50).

For the compound `CC(=O)NC(CSC12CC(=O)OC1(C)/C(=C/c1ccc(S(C)(=O)=O)cc1)c1ccc(F)cc12)C(=O)O` (racemic) [D, rac-(E)-1-(butan-1′,4′-olido)-[3′,4′:1,2]-6-fluoro-2-methyl-3-(p-methylsulfonylbenzylidene)-1S-indanyl-N-acetylcysteine], in series [1] (activity profile), the “COX Inhibition” value is listed as “−”. The “Growth inhibitory activity, % Inhibition at 100 μM” value in series [2] is listed as 78%.
In turn, `CCCCCC[C@@H]([C@@H](C)O)n1cnc2c(N)ncnc21` (racemic) [EHNA, reference compound] displayed an IC50 in [3] of 3700 nM. Moreover, the “Apoptosis inducing activity, Fold induction at 100 μM” value in series [4] is less than 2.0 fold.
In the case of `CC1=C(CC(=O)O)c2cc(F)ccc2/C1=C\c1ccc(Cl)cc1` [C, (Z)-5-Fluoro-2-methyl-1-(p-chlorobenzylidene)-3-acetic acid], in series [5], the “cGMP PDE % Inhibition at 100 μM” value is recorded as less than 25%. In [2], the “Growth inhibitory activity, % Inhibition at 100 μM” value was determined as 80%.
For the compound `O=C([O-])C1CCN(c2nc(NCc3ccc4c(c3)OCO4)c3cc(Cl)ccc3n2)CC1.[Na+]` [Compound E4021, reference compound], in [2], the “Growth inhibitory activity, % Inhibition at 100 μM” value is listed as less than 50%.
In the case of `COc1cc(/C=C2/C(C)=C(CC(=O)NCc3ccccc3)c3cc(F)ccc32)cc(OC)c1OC` [Compound E, (Z)-5-Fluoro-2-methyl-1-(3,4,5-trimethoxybenzylidene)-3-indenylacetamide, N-benzyl], the “COX Inhibition” value was “did not inhibit COX” in series [1] (100 μM) and “−” in [1] (activity profile). In addition, the IC50 in series [3] is 370 nM; in [6], 0.1 µM; in [2] (HT-29, 144 h, six days, read-out: IC50 for growth inhibition of HT-29 cells) it was 40 nM; in series [8], 380 nM; in [9], 0.6 µM; in [10] it was 0.04 µM. In addition, the IC50 in series [11] stood at 0.1 µM. In [5], the “cGMP PDE % Inhibition at 100 μM” value was found to be 75%. The inhibition at 100 µM in series [2] came out at 62%. Besides, the “Growth Inhibition” value in series [2] (activity profile) is recorded as “++++”. Moreover, the “Mammary Gland Organ Culture” value in [7] is “++++”. Besides, the EC50 in series [4] (Homo sapiens, HT-29, 48 hours, DNA fragmentation, read-out: EC50 for apoptosis induction) came out at 50 nM.
`CC1=C(CC(=O)O)c2cc(F)ccc2/C1=C\c1ccc(S(C)(=O)=O)cc1` [Exisulind, (Z)-5-fluoro-2-methyl-1-[[4-(methylsulfonyl)phenyl]methylene]indene-3-yl acetic acid]: the “COX Inhibition” value in series [1] (activity profile) is “−”. In addition, the IC50 in series [6] amounted to 120 µM; in [12] it was 82 µM; in series [13], 130 µM. In series [7], the “inhibition of premalignant lesions” value is reported as “effectively inhibit the formation of premalignant lesions”. The “side effects at recommended dose” value in series [14] (300-400 mg/day) is on record as “no significant side effects”. In addition, the “liver enzymes at doses higher than recommended” value in series [14] (doses higher than the recommended therapeutic levels, reversible) is “elevated levels of liver enzymes”.
As to `CC1=C(CC(=O)N(C2CCCCC2)C2CCCCC2)c2cc(F)ccc2/C1=C\c1ccc(S(C)(=O)=O)cc1` [F, (Z)-5-Fluoro-2-methyl-1-(p-methylsulfonylbenzylidene)-3-indenylacetamide, N,N′-dicyclohexyl], the “COX Inhibition” value in series [1] (activity profile) is given as “−”.
For the compound `CC1(C)C(=O)Nc2ccc(C3=NNC(=O)CC3)cc21` [Indolidan], the IC50 was more than 100000 nM in series [3] and 31000 nM in series [8].
As for `Clc1cccc(Nc2nnc(-c3ccccc3)c3ccccc23)c1` [MY5445, reference compound], the “COX Inhibition” value in [1] (activity profile) was “++++”.
As to `Cc1[nH]c(=O)c(C#N)cc1-c1ccncc1` [Milrinone], the IC50 in [2] (setting [17]) is more than 200000 nM. In series [15], the “% Apoptosis” value turned out to be 18% and the “% Necrosis” value is 0%.
Regarding `COc1ccc(C2CNC(=O)C2)cc1OC1CCCC1` (centres unmarked) [Rolipram], in [3], the IC50 was more than 100000 nM. Also, the “effect on cAMP levels” value in series [16] is “increased cAMP levels”.
As to `CCCc1nn(C)c2c(=O)[nH]c(-c3cc(S(=O)(=O)N4CCN(C)CC4)ccc3OCC)nc12` [Sildenafil, reference compound], in [2], the inhibition at 100 µM was less than 50%.
`CCOC(=O)C1=C[C@]2(CC)CCCN3CCc4c(n1c1ccccc41)[C@@H]32` [Vinpocetine]: the IC50 in [3] and in series [8] was more than 100000 nM throughout.
In the case of `CCCOc1ccccc1-c1nc2nn[nH]c2c(=O)[nH]1` [Zaprinast, reference compound], the IC50 in series [2] (setting [17]) is more than 100000 nM. Moreover, the inhibition at 100 µM in [2] is less than 50%.
In the case of `CC1=C(CC(=O)O)c2cc(F)ccc2/C1=C/c1ccc([S+](C)[O-])cc1` (centres unmarked) [sulindac sulfoxide], the “inhibition of premalignant lesions” value in series [7] was “effectively inhibit the formation of premalignant lesions”.
Turning to “rac-(E)-1-(butan-1′,4′-olido)-[3′,4′:1,2]-6-fluoro-2-methyl-3-(p-methylsulfonylbenzylidene)-1 S-indanyl-glutathione)”, in [1] (activity profile), the “COX Inhibition” value is on record as “−”.
As for “rac-threo-(E)-1-(N,N′-diethylaminoethanethio)-1-(butan-1′,4′-olido)-[3′,4′:1,2′]-6-fluoro-2-methyl-3-(p-methylsulfonylbenzylidene)-indan”, the “COX Inhibition” value in series [1] (activity profile) was “−”. Also, the “cGMP PDE % Inhibition at 100 μM” value in series [5] was less than 25%. Besides, the “Growth inhibitory activity, % Inhibition at 100 μM” value in series [2] turned out to be 68%. The “Mammary Gland Organ Culture” value in series [7] is on record as “++”. In addition, the “Apoptosis inducing activity, Fold induction at 100 μM” value in series [4] was less than 2.0 fold.
Turning to “ribo-(E)-1-Triazolo-[2′,3′:1″,3″]-1-(butan-1′,4′-olido)-[3′,4′:1,2]-6-fluoro-2-methyl-3-(p-methylsulfonylbenzylidene)-indan [G]”, in series [1] (activity profile), the “COX Inhibition” value is “−”.
